Measured values published in patent publication US10421781B2, “Antimicrobial peptide and use thereof” (NOVACELL TECHNOLOGY INC., priority 2015, dated 2019).

How the values were obtained:
[1] = antibacterial activity of N-terminally lipid-modified peptides; assay type: cell-based; settings: compared with peptides carrying other lipid groups (palmitoyl etc.) at the N-terminus
From the text: In order to further improve the antibacterial activity of the peptides that underwent the basic screening in Example 1, the present inventors have examined the antibacterial activity of these peptides by synthesizing modified peptides in which various lipid components, such as a palmitoyl group, an octanoyl group, etc., were attached to the N-terminus of these peptides.

FPR2 = target: T1, FPR2 (Homo sapiens, UniProt P25090); test: intracellular calcium ions (Fura-2/AM) in RBL cells overexpressing FPR2; assay type: cell-based
T1 construct: expressed in transfected cells; host or cells: RBL cells overexpressing FPR2 (FPR2-RBL)
T1 sequence (P25090 1-351): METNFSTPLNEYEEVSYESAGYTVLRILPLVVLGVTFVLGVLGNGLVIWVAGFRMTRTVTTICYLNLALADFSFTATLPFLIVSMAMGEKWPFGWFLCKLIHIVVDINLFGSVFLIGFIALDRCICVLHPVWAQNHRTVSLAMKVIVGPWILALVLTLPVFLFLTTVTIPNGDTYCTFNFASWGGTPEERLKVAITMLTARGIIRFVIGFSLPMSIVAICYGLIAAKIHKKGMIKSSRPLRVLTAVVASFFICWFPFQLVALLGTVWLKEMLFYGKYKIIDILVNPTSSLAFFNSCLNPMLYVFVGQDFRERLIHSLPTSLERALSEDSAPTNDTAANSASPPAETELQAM
From the text: To examine whether the peptide according to an embodiment of the present invention activates the in vivo immunological function of a living organism, the present inventors observed the changes in calcium ion permeability. Specifically, they measured the concentration of intracellular calcium ions to examine whether the peptide activates FPR2. To this end, the present inventors used RBL cells in which FPR2 was not expressed, RBL cells in which FPR1 was overexpressed (FPR1-RBL), and RBL cells in which FPR2 was overexpressed, and used Fura-2/AM, a staining material having a strong binding affinity for calcium, as a method for sensitive measurement of the release of intracellular calcium ions. […] Approximately 2×10^6 cells were taken each time and harvested by rapid centrifugation, and resuspended in 1 mL of Locke solution in which EGTA was added but no calcium ions were added, and the absorbance ratios at two wavelengths of 340 nm and 380 nm were monitored on a spectrophotometer. After treating with the peptide of the present invention at different concentrations (1 μM, 0.1 μM, and 0.01 μM) at intervals of about 1 minute, the difference in absorbance at two wavelengths of 340 nm and 380 nm was examined and this was later converted to the concentration of calcium ions freed into the cells according to the method of Grynkiewicz.

[2] = test system: atopic dermatitis induced by capsaicin (2 W Cap); test: 2 W Cap model of atopic dermatitis induced by capsaicin; assay type: in vivo, Sprague Dawley rats; settings: 10 μM applied daily on back and ears
From the text: As such, to confirm whether the peptide according to an embodiment of the present invention can actually treat immune-related diseases by activating immunological functions in vivo, the present inventors examined whether the symptoms of atopic dermatitis can be ameliorated by treating the peptide on the animal model of atopic dermatitis. Specifically, to confirm whether the peptide has the effect of ameliorating dermatitis in a model of atopic dermatitis induced by capsaicin, the present inventors observed the degree of skin improvement after treating the peptide (NCP112) according to an embodiment of the present invention on the animals with atopy (Neo-Cap and 2 W Cap) in the dermis of atopy-induced skin tissue, the applied site in the dermis, and the site with scratches. Neo-Cap, which is a representative model of atopic dermatitis, was subcutaneously injected with capsaicin (50 mg/kg) on the back skin of neonatal rats (Sprague Dawley rats) of less than 48 hours to induce atopic dermatitis. 2 W Cap, which is a model mimicking of atopic dermatitis developed in adolescent period or adults, was subcutaneously injected twice with capsaicin (25 mg/kg) of 2-week-old rats (Sprague Dawley) to induce atopic dermatitis.
In 2 W-Cap model, the dermatitis score was measured one week after the capsaicin injection, and the control group (PBS) and NCP112 were applied daily on the back (200 μL) and both ears (50 μL) at a concentration of 10 μM, and the dermatitis score was measured at one-week intervals for two weeks, in the same manner as in Neo-Cap model.
The mice analyzed in Experimental Example 3-1 were treated with the peptide according to an embodiment of the present invention, and after five weeks, the mice were sacrificed. The skin tissue at the site where dermatitis was induced by capsaicin treatment was removed in a size of about 3 cm×3 cm and the tissue was fixed in a 4% paraformaldehyde solution for two to three days. […]

E. coli = test: antibacterial test in nutrient broth (absorbance at 600 nm); assay type: cell-based, Escherichia coli
Experimental: (§1) In order to further improve the antibacterial activity of the peptides prepared in Example 2, an antibacterial test was performed. Gram-positive bacteria Staphylococcus epidermidis and Staphylococcus aureus) and gram-negative bacteria (Pseudomonas aeruginosa and E. coli) were prepared, streaked on agar plate medium using a four-quadrant sequential streak technique, and cultured in a 36° C. incubator overnight. On the next day, the strain colonies on the agar plate medium were inoculated into nutrient broth (3 mL) and cultured overnight at 36° C. and 220 rpm in a shaking incubator. On the next day, the bacteria culture was diluted and the absorbance at 600 nm was measured and adjusted to 0.5. Then, the bacteria culture was diluted in nutrient broth in a 1:100 ratio. Then, the peptides prepared in Example 2 were sequentially diluted in nutrient broth at concentrations of 0 μM, 1.25 μM, 2.5 μM, 5 μM, 10 μM, and 20 μM in an amount of 1 mL, respectively, and 1 mL of the diluted bacteria was inoculated, and cultured overnight at 36° C. and 220 rpm in a shaking incubator for 18 hours. Then, the absorbance was measured at 600 nm and the results were analyzed.

Pseudomonas aeruginosa = test: as above; assay type: cell-based
Experimental: as §1

[3] = test system: Staphylococcus epidermidis; test: as above; assay type: cell-based
Experimental: as §1

Staphylococcus aureus = test: as above; assay type: cell-based
Experimental: as §1

[4] = test system: atopic dermatitis induced by capsaicin (Neo-Cap); test: Neo-Cap model of atopic dermatitis induced by capsaicin; assay type: in vivo, Sprague Dawley rats; settings: 10 μM applied daily on back and ears
Experimental: As such, to confirm whether the peptide according to an embodiment of the present invention can actually treat immune-related diseases by activating immunological functions in vivo, the present inventors examined whether the symptoms of atopic dermatitis can be ameliorated by treating the peptide on the animal model of atopic dermatitis. […]
In Neo-Cap model, the dermatitis score was measured two weeks after the injection of capsaicin, and the control group (PBS) and NCP112 were applied daily on the back (200 μL) and both ears (50 μL) at a concentration of 10 μM, and the dermatitis score was measured at one-week intervals for three weeks. The dermatitis score was measured on the face, ears, back (total) and ears, and back (application site) according to skin conditions, and the score was standardized by setting the score at the second week (i.e., the starting point) at 1, as shown in FIG. 4.
The mice analyzed in Experimental Example 3-1 were treated with the peptide according to an embodiment of the present invention, and after five weeks, the mice were sacrificed. […]

[5] = versus control (PBS), week 5, FIG. 6
[6] = 10 μM peptide, 18 hours, 36° C., absorbance 600 nm

In the case of Oct-KFKWRYm [NCP112], the “antibacterial activity among modified peptides” value [1] is reported as “highest activity”, the “amount of intracellular concentration increase of calcium ions” value (FPR2; 1 μM, 0.1 μM and 0.01 μM peptide, FPR2-RBL cells, FIG. 2B) is reported as “concentration-dependent feature” and the intracellular calcium ions (FPR2; FPR2-RBL versus RBL and FPR1-RBL cells, FIG. 2A) is reported as “rapidly increased specifically in FPR2-RBL cells”. The skin conditions [2] was “comparable to that of the normal conditions”, the “symptom of atopic dermatitis” value [2] was “effect of ameliorating the symptom of atopic dermatitis” and the “epidermal layer (thickness, H&E stained skin tissue)” value [2, 5] was “significant decrease”. For the same substance, the antibacterial activity (E. coli; 0 to 20 μM peptide, FIG. 1) was “concentration-dependent manner”, the growth of bacteria (E. coli; [6]) was “completely inhibited the growth” and the antibacterial activity (Pseudomonas aeruginosa; 0 to 20 μM peptide, FIG. 1) was “concentration-dependent manner”. The growth of bacteria (Pseudomonas aeruginosa; [6]) was “completely inhibited the growth”, the “antibacterial effect compared among the 4 kinds of bacteria” value (Pseudomonas aeruginosa; FIG. 1) was “highest antibacterial effect” and the antibacterial activity ([3]; 0 to 20 μM peptide, FIG. 1) was “concentration-dependent manner”. The growth of bacteria [3, 6] was “completely inhibited the growth”, the antibacterial activity (Staphylococcus aureus; 0 to 20 μM peptide, FIG. 1) was “concentration-dependent manner” and the growth of bacteria (Staphylococcus aureus; [6]) was “completely inhibited the growth”. For the same substance, the “symptom of atopic dermatitis” value [4] was “effect of ameliorating the symptom of atopic dermatitis” and the “epidermal layer (thickness, H&E stained skin tissue)” value [4, 5] was “slight decrease”.
